{"source": "patent US5977442A", "about": "“Salicylic acid induced map kinase and its use for enhanced disease resistance in plants” (priority 1997, dated 1999)", "key": {"[1]": {"tested_on": "p48 SIP kinase", "assay": "Treatment of p48 SIP kinase with phosphatases", "format": "biochemical, tobacco", "details": "okadaic acid against PP1; Na3 VO4 against YOP", "protocol": "FIG. 13 is a histogram showing inactivation of p48 SIP kinase by phosphatase treatment. Approximately 20 units of the SIP kinase was treated with either the serine/threonine-specific phosphatase PPI (0.1 units) or the tyrosine-specific protein phosphatase YOP (0.5 units) for 10 min (bars 2 to 5) or 30 min (bars 7 to 10) at 30° C. in the presence or absence of a phosphatase inhibitor. Bars 1 and 6 represent the control without phosphatase or phosphatase inhibitor; bars 2 and 7, PPI; bars 3 and 8, PPI plus okadaic acid (1 μM); bars 4 and 9, YOP; bars 5 and 10, YOP plus Na3 VO4 (1 mM). Before assaying for SIP kinase activity, the phosphatase inhibitors were added to all of the reactions to the same final concentrations.\nThe phosphatase inhibitors present in the purified p48 SIP kinase preparation were first removed by dialysis against buffer B lacking β-glycerophosphate and Na3 VO4 in a 0.5-mL 10 K dialysis cassette (Slide-A-Lyzer; Pierce). For treatment with serine/threonine protein phosphatase PP1 (Calbiochem, San Diego, Calif.), MnCl2, DTT, and BSA were added to aliquots of the SIP kinase preparation to final concentrations of 200 μm, 5 mM and 100 μg/mL respectively. Then 0.1 unit of PP1 was added, and the reaction mixture was incubated at 30° C. in the presence or absence of 1 μM of the phosphatase inhibitor okadaic acid (Calbiochem). […]"}, "[2]": {"tested_on": "TMV", "details": "Dunigan et al., 1995; cited from earlier work"}, "[3]": {"tested_on": "PR-1 gene expression", "details": "Conrath et al., 1997; cited from earlier work"}, "[4]": {"tested_on": "p48 SIP kinase (precipitation by 4G10 antibody)", "assay": "Immunoprecipitation-kinase activity assay with 4G10 antibody and phospho-amino acid competitors", "format": "binding, Nicotiana tabacum cv Xanthi nc", "details": "1 mM competitor", "protocol": "About 25 μL packed volume of protein A-agarose was added, and the incubation was continued for another 2 hours. Agarose bead-protein complexes were pelleted by brief centrifugation. After washing with immunoprecipitation buffer three times, 1× SDS sample buffer was added and the sample boiled for 3 minutes. After centrifugation, the supernatant fraction was electrophoresed on 10% SDS-PAGE gel, and the in-gel kinase assay was performed."}, "[5]": {"biological_target": "myelin basic protein (MBP)"}, "[6]": {"tested_on": "phosphotyrosine-containing 48 kDa protein", "assay": "Immunoblot analysis with anti-phosphotyrosine antibody 4G10 of treated cell extracts", "format": "cell-based, Nicotiana tabacum cv Xanthi nc", "details": "250 μM SA or 2 mM H2 O2; FIG. 4A", "protocol": "(§1) The cell suspension culture was derived from callus tissue originated from leaves of Nicotiana tabacum cv Xanthi nc and grown in MS medium supplemented with 1 mg/L α-naphthaleneacetic acid, 0.1 mg/L 2,4-dichlorophenoxyacetic acid, 0.1 mg/L benzyladenine, and 3% sucrose. Log phase cells were used three days after a 1:10 dilution. Treatment with H2 O2, SA and its analogues was performed in the original flasks in the dark to avoid any stresses associated with transfer. At various times, 10 mL cells (approximately 0.2 to 0.3 g fresh weight of cells) were harvested by filtration. The cells were quickly frozen in liquid nitrogen and stored at -80° C. until analysis.\n(§2) Protein extracts were separated by SDS-PAGE on 10% acrylamide gels, and the proteins were transferred to nitrocellulose membrane by semidry electroblotting. The membrane was blocked for 2 hours in TBS buffer (20 mM Tris, pH 7.5, 150 mM NaCl, 0.1% Tween 20, 0.1 mM Na3 VO4) with 10% BSA at room temperature, and then incubated with the phosphotyrosine-specific monoclonal antibody 4G10 (Upstate Biotechnology Incorporated, NY) in TBS buffer with BSA for 1 hr. After the blot was incubated with horseradish peroxidase-conjugated secondary antibody, the complexes were visualized using an enhanced chemiluminescence kit (DuPont, MA) following the manufacture's instructions."}, "[7]": {"tested_on": "200 kDa and 75 kDa kinase activity bands", "details": "long exposure of autoradiogram", "protocol": "as §1\nThe in-gel kinase assay was performed as described previously (Zhang et al., 1993). Extracts containing 10 μg protein were electrophoresed on 10% SDS-polyacrylamide gels imbedded with either 1 mg/mL of casein, 1 mg/mL histone (Type III-SS, Sigma, MO), 1 mg/mL BSA, or 0.25 mg/mL of MBP in the separating gel as substrate for the kinase. After electrophoresis, SDS was removed by washing the gel with washing buffer (25 mM Tris, pH 7.5, 0.5 mM DTT, 0.1 mM Na3 VO4, 5 mM NaF, 0.5 mg/mL BSA, 0.1% Triton X-100 [v/v]). The buffer was changed three times, each for 30 minutes at room temperature. […] Quantitation of the relative kinase activities were done using a phosphoimager (Molecular Dynamics Inc., CA)."}, "[8]": {"tested_on": "58 kDa, 52 kDa, and 40 kDa kinases", "details": "1 mM and 2 mM", "protocol": "as §1\nLeaf discs were first ground to a fine powder in 1.5 ml microcentrifuge tubes using small plastic pestles. […]\nThe in-gel kinase assay was performed as described previously (Zhang et al., 1993). […] Quantitation of the relative kinase activities were done using a phosphoimager (Molecular Dynamics Inc., CA)."}, "[9]": {"tested_on": "p48 SIP kinase", "assay": "In-gel kinase activity assay (MBP substrate) in extracts of treated tobacco suspension cells: activation of p48 SIP kinase", "format": "cell-based, Nicotiana tabacum cv Xanthi nc", "protocol": "as §1\nLeaf discs were first ground to a fine powder in 1.5 ml microcentrifuge tubes using small plastic pestles. After adding 0.25 mL extraction buffer (100 mM Hepes, pH 7.5, 5 mM EDTA, 5 mM EGTA, 10 mM DTT, 10 mM Na3 VO4, 10 mM NaF, 50 mM β-glycerolphosphate, 1 mM phenylmethylsulfonyl fluoride, 5 μg/mL antipain, 5 μg/mL aprotinin, 5 μg/mL leupeptin, 10% glycerol, 7.5% polyvinylpolypyrrolidone), the mixture was sonicated for 15 seconds with a W-375 Sonicator (Heat System-Ultrasonics, Inc., N.Y.) fitted with a microprobe at setting 4 and 80% duty cycle. To prepare extracts from treated cells, cells were mixed with two volumes (w/v) of extraction buffer and were then sonicated twice for 15 seconds each in 1.5 mL microcentrifuge tube. After centrifugation at 13,000 rpm for 20 minutes, supernatants were transferred into clean tubes, quickly frozen in liquid nitrogen and stored at -80° C.\nThe in-gel kinase assay was performed as described previously (Zhang et al., 1993). Extracts containing 10 μg protein were electrophoresed on 10% SDS-polyacrylamide gels imbedded with either 1 mg/mL of casein, 1 mg/mL histone (Type III-SS, Sigma, MO), 1 mg/mL BSA, or 0.25 mg/mL of MBP in the separating gel as substrate for the kinase. After electrophoresis, SDS was removed by washing the gel with washing buffer (25 mM Tris, pH 7.5, 0.5 mM DTT, 0.1 mM Na3 VO4, 5 mM NaF, 0.5 mg/mL BSA, 0.1% Triton X-100 [v/v]). The buffer was changed three times, each for 30 minutes at room temperature. The kinases were allowed to renature in 25 mM Tris, pH 7.5, 1 mM DTT, 0.1 mM Na3 VO4, 5 mM NaF at 4° C. overnight with three changes of buffer. The gel was then incubated at room temperature in 30 mL reaction buffer (25 mM Tris, pH 7.5, 2 mM EGTA, 12 mM MgCl2, 1 mM DTT, 0.1 mM Na3 VO4) with 200 nM ATP plus 50 μCi γ-^32 P-ATP (3000 Ci/mmole) for 60 minutes. The reaction was stopped by transferring the gel into 5% TCA (w/v)/1% NaPPi (w/v). The unincorporated γ-^32 P-ATP was removed by washing in the same solution for at least 6 hours with 5 changes of buffer. The gel was dried onto 3 MM paper and exposed to Kodak XAR-5 film. Prestained size markers (Bio-Rad, CA) were used to calculate the size of the kinases. Quantitation of the relative kinase activities were done using a phosphoimager (Molecular Dynamics Inc., CA)."}, "[10]": {"tested_on": "tyrosine-phosphorylated proteins", "details": "in response to H2 O2", "protocol": "as §1, §2"}, "[11]": {"tested_on": "kinase activities in extracts from SA-treated cells (casein, histone, or BSA as substrate)", "assay": "In-gel kinase activity assay with casein, histone or BSA as substrate in extracts of treated tobacco suspension cells", "format": "cell-based, Nicotiana tabacum cv Xanthi nc"}, "[12]": {"tested_on": "p48 SIP kinase", "assay": "Activation of p48 SIP kinase in tobacco leaves after injection", "format": "in vivo, N. tabacum cv Xanthi nc", "protocol": "(§3) Tobacco plants (N. tabacum cv Xanthi nc) were grown at 22° C. in a growth room programmed for a 14-hr light cycle. Plants approximately 7-8 weeks old were used for experiments. For temperature-shift experiments, plants were transferred to a 32° C. chamber one day before inoculation. TMV strain U1 was used at a concentration of 1 μg/mL in 50 mM phosphate buffer, pH 7.0; mock inoculation was done with buffer only. After 48 hours infected plants were shifted back to 22° C. and leaf discs (1 cm in diameter) were taken at the indicated times. For water or SA treatment, one leaf from each plant was injected with solution using a syringe until the entire leaf was infiltrated."}, "[13]": {"tested_on": "the two major H2 O2 -scavenging enzymes", "details": "Chen et al., 1993; Durner and Klessig, 1995; cited from earlier work"}, "[14]": {"tested_on": "44 kDa kinase", "assay": "Activation of 44 kDa kinase in tobacco leaves", "format": "in vivo, N. tabacum cv Xanthi nc", "details": "SA treatment of tobacco plants", "protocol": "as §3"}}}
{"compound": "C=C1[C@@H](O)[C@@H]2O[C@]3(CC[C@H](/C=C/[C@@H](C)[C@@H]4CC(C)=C[C@@]5(O[C@H](C[C@@](C)(O)C(=O)O)CC[C@H]5O)O4)O3)CC[C@H]2O[C@@H]1[C@@H](O)C[C@H](C)[C@H]1O[C@@]2(CCCCO2)CC[C@H]1C", "note": "[okadaic acid]", "values": [{"measurement": "prevention of phosphatase inactivation of SIP kinase", "setting": "[1]", "result": "could be prevented"}, {"measurement": "inhibition of lesion formation after TMV infection", "setting": "[2]", "result": "lesion formation after TMV infection was inhibited"}, {"measurement": "blocking of SA-mediated induction of PR-1 gene expression", "setting": "[3]", "result": "blocked the SA-mediated induction of PR-1 gene expression"}]}
{"compound": "N[C@@H](Cc1ccc(OP(=O)(O)O)cc1)C(=O)O", "note": "[phosphotyrosine]", "values": [{"measurement": "inhibition of precipitation of p48 SIP kinase", "setting": "[4]", "result": "inhibited precipitation of the p48 SIP kinase"}]}
{"compound": "p48 SIP kinase (salicylic acid-induced protein kinase), activated form from SA- or H2O2-treated tobacco cells, in extracts or purified (enzyme)", "values": [{"measurement": "phosphorylation of MBP, in-solution kinase assay (Km for MBP)", "setting": "[5]", "result": 0.19, "unit": "mg/mL"}]}
{"compound": "OO", "note": "[H2 O2, hydrogen peroxide]", "values": [{"measurement": "tyrosine phosphorylation of 48 kDa protein", "setting": "[6]", "result": "prolonged phosphorylation of tyrosine residue(s) on a 48 kDa protein"}, {"measurement": "weakly induced kinase activity bands at 200 kDa and 75 kDa", "setting": "[7]", "result": "weakly induced"}, {"measurement": "activation of other kinases (58, 52, 40 kDa)", "setting": "[8]", "result": "induced several kinase activities"}, {"measurement": "activation of p48 SIP kinase by H2O2", "setting": "[9]; 1 mM and 2 mM", "result": "induced several kinase activities including the p48 SIP kinase"}, {"measurement": "kinase activity at 60 minutes after addition", "setting": "[9]; 60 minutes after addition of H2 O2", "result": "remained at peak levels"}, {"measurement": "duration of SIP kinase activation relative to SA", "setting": "[9]; tobacco suspension cells, data not shown for analogues", "result": "more sustained compared to that induced by SA"}, {"measurement": "number of proteins phosphorylated on tyrosine residues", "setting": "[10]", "result": "at least four"}]}
{"compound": "O=C(O)c1ccccc1O", "note": "[SA, salicylic acid]", "values": [{"measurement": "increase in kinase activities with casein, histone, or BSA as substrate", "setting": "[11]", "result": "no increases in kinase activities were detected"}, {"measurement": "activation of p48 SIP kinase by second injection", "setting": "[12]; leaves first injected with water, then SA", "result": "dramatic activation of the p48 SIP kinase"}, {"measurement": "activation of kinase in leaves, first (rapid) peak: return to basal level", "setting": "[12]; single injection 500 μM SA", "result": "about 30 minutes"}, {"measurement": "time of second, more prolonged peak of kinase activation", "setting": "[12]; single injection 500 μM SA", "result": "approximately 3 hours"}, {"measurement": "tyrosine phosphorylation of 48 kDa protein", "setting": "[6]", "result": "transient increase in the level of a phosphotyrosine-containing 48 kDa protein"}, {"measurement": "inhibition of the two major H2O2-scavenging enzymes", "setting": "[13]", "result": "can inhibit the two major H2 O2 -scavenging enzymes"}, {"measurement": "activation of p44 kinase", "setting": "[14]", "result": "also evident after SA treatment of tobacco plants"}, {"measurement": "time to peak of p48 SIP kinase activation", "setting": "[9]; 250 μM SA, tobacco suspension cells", "result": "≤ 5", "unit": "min"}, {"measurement": "activation of 48 kDa (p48 SIP) kinase", "setting": "[9]; 250 μM, tobacco suspension cells, MBP substrate", "result": "activated a 48 kDa kinase"}, {"measurement": "reactivation of SIP kinase by second addition of SA", "setting": "[9]; second addition up to 4 hr after initial treatment", "result": "did not reactivate the SIP kinase"}, {"measurement": "minimum concentration of SA required to activate p48 kinase", "setting": "[9]; tobacco suspension cells", "result": 100, "unit": "µM"}, {"measurement": "concentration at which maximum p48 kinase activity obtained", "setting": "[9]; tobacco suspension cells, FIG. 1E", "result": 500, "unit": "µM"}]}
